# Several values for one entry are separate records, joined by “and”; a condition that tells them apart may be missing. Equal values may be shown once.
# Experiments:
# human recombinant MAO-A [1] = molecular target: T1, human recombinant MAO-A (Homo sapiens, UniProt P21397); experiment: MAO-Glo MAO-A inhibition assay; format: biochemical; details: for MAO-A enzyme assay, Percent of control: N=1-3, listed as UroC
# T1 construct: purchased Sigma-Aldrich
# T1 sequence (P21397 1-527): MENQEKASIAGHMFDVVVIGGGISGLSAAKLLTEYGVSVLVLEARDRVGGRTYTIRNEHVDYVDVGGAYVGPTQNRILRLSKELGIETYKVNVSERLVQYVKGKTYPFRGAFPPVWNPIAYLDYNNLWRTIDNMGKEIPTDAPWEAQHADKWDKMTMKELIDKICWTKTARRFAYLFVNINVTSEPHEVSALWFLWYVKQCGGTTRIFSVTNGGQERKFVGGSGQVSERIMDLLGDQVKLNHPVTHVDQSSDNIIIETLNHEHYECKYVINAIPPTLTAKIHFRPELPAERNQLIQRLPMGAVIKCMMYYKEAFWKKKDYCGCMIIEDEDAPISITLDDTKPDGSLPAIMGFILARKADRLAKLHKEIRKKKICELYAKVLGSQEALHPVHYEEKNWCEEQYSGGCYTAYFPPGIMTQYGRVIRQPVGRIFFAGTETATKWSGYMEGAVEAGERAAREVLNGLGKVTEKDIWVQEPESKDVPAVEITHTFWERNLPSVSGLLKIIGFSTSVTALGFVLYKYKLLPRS
# human recombinant MAO-A [2] = molecular target: T1, human recombinant MAO-A; experiment: MAO-A inhibition kinetics (variable substrate, Lineweaver–Burk plot); format: biochemical; set-up: Michaelis-Menten best-fit Vmax of MAO-A / Michaelis-Menten best-fit Vmax of MAO-A, Average: unit not given here; details: for MAO-A assay signal (luminescence) / Transformed (reciprocal of MAO-A assay signal) / Michaelis-Menten best-fit Vmax of MAO-A: N=1-3
# Method: MAO inhibition assays were performed using a MAO-Glo™ Assay kit (Promega) according to the manufacturer’s instructions. Briefly, 1 µg of human recombinant MAO-A and MAO-B enzyme isoforms were incubated with 160 and 16 µM of MAO substrates, respectively. […] The enzyme reaction was quenched by the addition of a luciferin detection reagent. […] An equal volume of dimethyl sulfoxide (0.1%) was added to the enzyme assay as a control. After 1 h of incubation, the luminescence was measured with a multimode microplate reader (Synergy HT, BioTek, Winooski, VT, USA) to determine the MAO enzyme activities. Initially, the inhibition potential of all the test compounds was evaluated at a concentration of 100 μM. The control reaction (with no inhibitor) with vehicle (DMSO 0.1%) was set at 100% activity. To determine IC50 of the test compounds, the dose dependent enzyme assays were performed. We used range of 0.1 to 50 μM concentrations for MAO-A and 0.1 to 200 μM concentrations of test compounds for the MAO-B enzyme activities. The type of enzyme inhibition was determined using variable concentrations of MAO-A substrate (10–360 µM) and MAO-B substrate (2–64 µM) for the respective enzyme assay. […] A Lineweaver–Burk double reciprocal plot was generated, and the mode of inhibition was determined by visual examination of the plot. The slope of the reciprocal plots was plotted against the inhibitor concentrations and determined the x-axis intercept that represented the inhibitor constant, Ki value.
# All experiments were performed in triplicates and data are presented as mean ± standard error of the mean (SEM). The raw data are provided in Supplementary Data, Table S1. Enzyme kinetic data were analyzed using the Lineweaver–Burk plot. Statistical analysis was performed by Student’s t-test using GraphPad Prism Ver. 7.0 (GraphPad Prism Software Inc., San Diego, CA, USA).
# [3] = UroC 15 µM, MAO-A substrate 10 uM
# [4] = UroC 15 µM, MAO-A substrate 20 uM
# [5] = UroC 15 µM, MAO-A substrate 40 uM
# [6] = UroC 15 µM, MAO-A substrate 80 uM
# [7] = UroC 15 µM, MAO-A substrate 160 uM
# [8] = UroC 15 µM, MAO-A substrate 320 uM
# [9] = UroC 60 µM, MAO-A substrate 10 uM
# [10] = UroC 60 µM, MAO-A substrate 20 uM
# [11] = UroC 60 µM, MAO-A substrate 40 uM
# [12] = UroC 60 µM, MAO-A substrate 80 uM
# [13] = UroC 60 µM, MAO-A substrate 160 uM
# [14] = UroC 60 µM, MAO-A substrate 320 uM
smiles,measurement,setting,value
"O=c1oc2cc(O)ccc2c2cc(O)c(O)cc12 [UC, urolithin-C]",IC50,"human recombinant MAO-A [1]; 0–50 μM range, 160 µM substrate, 37 °C, 1 h, read-out: IC50 for MAO-A inhibitory activity",29.6 ± 1.8 µM
same,"MAO-A enzyme assay, Percent of control",human recombinant MAO-A [1]; 0.1 µM,81.5785% of control and 83.2586% of control and 93.5154% of control
same,"MAO-A enzyme assay, Percent of control",human recombinant MAO-A [1]; 0.5 µM,88.4995% of control and 88.7443% of control and 76.6736% of control
same,"MAO-A enzyme assay, Percent of control",human recombinant MAO-A [1]; 1 µM,95.9222% of control and 92.2777% of control and 91.5145% of control
same,"MAO-A enzyme assay, Percent of control",human recombinant MAO-A [1]; 5 µM,81.1285% of control and 71.4874% of control and 89.8253% of control
same,"MAO-A enzyme assay, Percent of control",human recombinant MAO-A [1]; 10 µM,68.5636% of control and 69.9396% of control and 63.7804% of control
same,"MAO-A enzyme assay, Percent of control",human recombinant MAO-A [1]; 25 µM,64.6896% of control and 58.5532% of control and 52.6539% of control
same,"MAO-A enzyme assay, Percent of control",human recombinant MAO-A [1]; 50 µM,46.6421% of control and 44.3022% of control and 44.6686% of control
same,"MAO-A enzyme assay, Percent of control","human recombinant MAO-A [1]; 100 µM (Figure 1A), 100 µM",11.345% of control and 12.577% of control and 11.352% of control
same,inhibition of MAO-A enzyme activity,"human recombinant MAO-A [1]; 100 µM, compared to vehicle",88%
same,mode of inhibition of MAO-A,human recombinant MAO-A [2]; Lineweaver–Burk plot,mixed mode of inhibition
same,"MAO-A assay signal (luminescence), Average",human recombinant MAO-A [2]; [3],1825
same,MAO-A assay signal (luminescence),human recombinant MAO-A [2]; [3],1969 and 1718 and 1788
same,"MAO-A assay signal (luminescence), Average",human recombinant MAO-A [2]; [4],3291
same,MAO-A assay signal (luminescence),human recombinant MAO-A [2]; [4],3541 and 3116 and 3216
same,"MAO-A assay signal (luminescence), Average",human recombinant MAO-A [2]; [5],5930.67
same,MAO-A assay signal (luminescence),human recombinant MAO-A [2]; [5],6537 and 5679 and 5576
same,"MAO-A assay signal (luminescence), Average",human recombinant MAO-A [2]; [6],11350.3
same,MAO-A assay signal (luminescence),human recombinant MAO-A [2]; [6],12348 and 10938 and 10765
same,"MAO-A assay signal (luminescence), Average",human recombinant MAO-A [2]; [7],17552.3
same,MAO-A assay signal (luminescence),human recombinant MAO-A [2]; [7],18484 and 16889 and 17284
same,"MAO-A assay signal (luminescence), Average",human recombinant MAO-A [2]; [8],26455.7
same,MAO-A assay signal (luminescence),human recombinant MAO-A [2]; [8],27220 and 26215 and 25932
same,"Transformed (reciprocal of MAO-A assay signal), Average","human recombinant MAO-A [2]; UroC 15 µM, [1/S] 0.003125",3.78e-5
same,Transformed (reciprocal of MAO-A assay signal),"human recombinant MAO-A [2]; UroC 15 µM, [1/S] 0.003125",3.674e-5 and 3.815e-5 and 3.856e-5
same,"Transformed (reciprocal of MAO-A assay signal), Average","human recombinant MAO-A [2]; UroC 15 µM, [1/S] 0.00625",5.697e-5
same,Transformed (reciprocal of MAO-A assay signal),"human recombinant MAO-A [2]; UroC 15 µM, [1/S] 0.00625",5.41e-5 and 5.921e-5 and 5.7857e-5
same,"Transformed (reciprocal of MAO-A assay signal), Average","human recombinant MAO-A [2]; UroC 15 µM, [1/S] 0.0125",8.81e-5
same,Transformed (reciprocal of MAO-A assay signal),"human recombinant MAO-A [2]; UroC 15 µM, [1/S] 0.0125",8.098e-5 and 9.142e-5 and 9.289e-5
same,"Transformed (reciprocal of MAO-A assay signal), Average","human recombinant MAO-A [2]; UroC 15 µM, [1/S] 0.025",0.0001686
same,Transformed (reciprocal of MAO-A assay signal),"human recombinant MAO-A [2]; UroC 15 µM, [1/S] 0.025",0.000153 and 0.0001761 and 0.0001793
same,"Transformed (reciprocal of MAO-A assay signal), Average","human recombinant MAO-A [2]; UroC 15 µM, [1/S] 0.05",0.0003039
same,Transformed (reciprocal of MAO-A assay signal),"human recombinant MAO-A [2]; UroC 15 µM, [1/S] 0.05",0.0002824 and 0.0003209 and 0.0003109
same,"Transformed (reciprocal of MAO-A assay signal), Average","human recombinant MAO-A [2]; UroC 15 µM, [1/S] 0.1",0.0005479
same,Transformed (reciprocal of MAO-A assay signal),"human recombinant MAO-A [2]; UroC 15 µM, [1/S] 0.1",0.0005079 and 0.0005821 and 0.0005593
same,"MAO-A assay signal (luminescence), Average",human recombinant MAO-A [2]; [9],728
same,MAO-A assay signal (luminescence),human recombinant MAO-A [2]; [9],706 and 793 and 685
same,"MAO-A assay signal (luminescence), Average",human recombinant MAO-A [2]; [10],1221
same,MAO-A assay signal (luminescence),human recombinant MAO-A [2]; [10],1198 and 1213 and 1252
same,"MAO-A assay signal (luminescence), Average",human recombinant MAO-A [2]; [11],2305.33
same,MAO-A assay signal (luminescence),human recombinant MAO-A [2]; [11],2310 and 2236 and 2370
same,"MAO-A assay signal (luminescence), Average",human recombinant MAO-A [2]; [12],4337.33
same,MAO-A assay signal (luminescence),human recombinant MAO-A [2]; [12],4338 and 4394 and 4280
same,"MAO-A assay signal (luminescence), Average",human recombinant MAO-A [2]; [13],8033.33
same,MAO-A assay signal (luminescence),human recombinant MAO-A [2]; [13],7953 and 7801 and 8346
same,"MAO-A assay signal (luminescence), Average",human recombinant MAO-A [2]; [14],14867.3
same,MAO-A assay signal (luminescence),human recombinant MAO-A [2]; [14],14760 and 14941 and 14901
same,"Transformed (reciprocal of MAO-A assay signal), Average","human recombinant MAO-A [2]; UroC 60 µM, [1/S] 0.003125",6.726e-5
same,Transformed (reciprocal of MAO-A assay signal),"human recombinant MAO-A [2]; UroC 60 µM, [1/S] 0.003125",6.775e-5 and 6.693e-5 and 6.711e-5
same,"Transformed (reciprocal of MAO-A assay signal), Average","human recombinant MAO-A [2]; UroC 60 µM, [1/S] 0.00625",0.0001245
same,Transformed (reciprocal of MAO-A assay signal),"human recombinant MAO-A [2]; UroC 60 µM, [1/S] 0.00625",0.0001257 and 0.0001282 and 0.0001198
same,"Transformed (reciprocal of MAO-A assay signal), Average","human recombinant MAO-A [2]; UroC 60 µM, [1/S] 0.0125",0.0002306
same,Transformed (reciprocal of MAO-A assay signal),"human recombinant MAO-A [2]; UroC 60 µM, [1/S] 0.0125",0.0002305 and 0.0002276 and 0.0002336
same,"Transformed (reciprocal of MAO-A assay signal), Average","human recombinant MAO-A [2]; UroC 60 µM, [1/S] 0.025",0.0004338
same,Transformed (reciprocal of MAO-A assay signal),"human recombinant MAO-A [2]; UroC 60 µM, [1/S] 0.025",0.0004329 and 0.0004472 and 0.0004219
same,"Transformed (reciprocal of MAO-A assay signal), Average","human recombinant MAO-A [2]; UroC 60 µM, [1/S] 0.05",0.000819
same,Transformed (reciprocal of MAO-A assay signal),"human recombinant MAO-A [2]; UroC 60 µM, [1/S] 0.05",0.0008347 and 0.0008244 and 0.0007987
same,"Transformed (reciprocal of MAO-A assay signal), Average","human recombinant MAO-A [2]; UroC 60 µM, [1/S] 0.1",0.001374
same,Transformed (reciprocal of MAO-A assay signal),"human recombinant MAO-A [2]; UroC 60 µM, [1/S] 0.1",0.001416 and 0.001261 and 0.00146
same,"Michaelis-Menten best-fit Vmax of MAO-A, Average",human recombinant MAO-A [2]; in presence of UroC 15 uM,50085
same,Michaelis-Menten best-fit Vmax of MAO-A,human recombinant MAO-A [2]; in presence of UroC 15 uM,47688 and 52039 and 50528
same,"Michaelis-Menten best-fit Vmax of MAO-A, Average",human recombinant MAO-A [2]; in presence of UroC 60 uM,82346
same,Michaelis-Menten best-fit Vmax of MAO-A,human recombinant MAO-A [2]; in presence of UroC 60 uM,96239 and 71263 and 79536
same,Ki,human recombinant MAO-A [2]; x-axis intercept of slopes of Lineweaver–Burk plots vs inhibitor concentration,44.3 µM

# Source: article PMC7345905, “Microbial Metabolite Urolithin B Inhibits Recombinant Human Monoamine Oxidase A Enzyme” (Metabolites, 2020)
